{"source": "patent US9167815B2", "about": "“Agricultural or horticultural fungicide composition and method for controlling plant pathogen” (ISHIHARA SANGYO KAISHA, LTD., priority 2011, dated 2015)", "format_in_all_cases": "cell-based", "key": {"Pythium graminicola": {"tested_on": "Pythium graminicola", "assay": "Inhibition test of mycelial growth against the genus Pythium (PSA plate)", "settings": "compound alone, 20° C., 3 days", "experimental": "A mycangium (diameter: 4 mm) obtained by precultivation was transplanted on PSA containing a chemical in a prescribed concentration and then cultured at room temperature of 20° C. for 3 days, followed by measuring a diameter of the grown mycangium to determine an inhibition rate of mycelial growth (%). In addition, an expected value of the inhibition rate was calculated according to the following Colby's formula and listed in parentheses of Tables 1 to 3. […] Colby's formula: x+y−xy/100 x: Inhibition rate of growth of the component (a) alone (%) y: Inhibition rate of growth of the component (b) alone (%)"}, "Rhizoctonia solani": {"tested_on": "Rhizoctonia solani", "assay": "Inhibition test of mycelial growth against the genus Rhizoctonia (PSA plate)", "settings": "compound alone, 20° C., 4 days", "experimental": "A mycangium (diameter: 4 mm) obtained by precultivation was transplanted on PSA containing a chemical in a prescribed concentration and then cultured at room temperature of 20° C. for 4 days, followed by measuring a diameter of the grown mycangium to determine an inhibition rate of mycelial growth (%). In addition, an expected value of the inhibition rate calculated according to the Colby's formula in the same manner as that in the foregoing Test Example 1 was listed in parentheses of Tables 4 to 6."}, "Botrytis cinerea": {"tested_on": "Botrytis cinerea", "assay": "Inhibition test of mycelial growth against gray mold (YS liquid medium, 96-well microplate)", "settings": "compound alone, 25° C., three days", "experimental": "On a YS (yeast extract+sucrose) liquid culture medium, a certain amount of a chemical solution prepared such that a final concentration of each chemical became a concentration at which the test was carried out was mixed. 100 μL of each of the chemical-containing YS liquid culture media was aliquoted into each well of a 96-well microplate. Thereafter, 50 μL of a spore suspension of gray mold whose spore concentration had been prepared as shown in the following tables was aliquoted into each well and cultivated at 25° C. under a light-dark cycle (light period: 16 hours, dark period: 8 hours). Three days after the cultivation, an area of the well bottom covered by the propagated gray mold hyphae was microscopically examined to determine an inhibition rate of growth (%). The inhibition rate of growth was visually examined while defining an area covered by hyphae in a non-treated well as 100. For the non-treatment, a chemical-free YS liquid culture medium was used. In addition, an expected value of the inhibition rate calculated according to the Colby's formula in the same manner as that in the foregoing Test Example 1 was listed in parentheses of Tables 7 to 13."}, "[1]": {"settings": "Pythium graminicola, 72 h, read-out: Inhibition Rate of Mycelial Growth against Pythium graminicola (%)"}, "[2]": {"settings": "Pythium graminicola, 72 h, 10 ppm, read-out: Inhibition Rate of Mycelial Growth against Pythium graminicola (%)"}, "[3]": {"settings": "Pythium graminicola, 72 h, 100 ppm, read-out: Inhibition Rate of Mycelial Growth against Pythium graminicola (%)"}, "[4]": {"settings": "Rhizoctonia solani, 96 h, 0.1 ppm, read-out: Inhibition Rate of Mycelial Growth against Rhizoctonia solani (%)"}, "[5]": {"settings": "Rhizoctonia solani, 96 h, 1 ppm, read-out: Inhibition Rate of Mycelial Growth against Rhizoctonia solani (%)"}, "[6]": {"settings": "Rhizoctonia solani, 96 h, 10 ppm, read-out: Inhibition Rate of Mycelial Growth against Rhizoctonia solani (%)"}, "[7]": {"settings": "Botrytis cinerea, 72 h, read-out: Inhibition Rate of Mycelial Growth against Botrytis cinerea (%)"}, "[8]": {"settings": "Botrytis cinerea, 72 h, 0.78 ppm, read-out: Inhibition Rate of Mycelial Growth against Botrytis cinerea (%)"}, "[9]": {"settings": "Botrytis cinerea, 72 h, 1.56 ppm, read-out: Inhibition Rate of Mycelial Growth against Botrytis cinerea (%)"}}}
{"smiles": "CO/C=C(/C(=O)OC)c1ccccc1Oc1cc(Oc2ccccc2C#N)ncn1", "note": "[azoxystrobin]", "values": [{"measurement": "Inhibition Rate of Mycelial Growth against Pythium graminicola (%)", "setting": "Pythium graminicola; 10 ppm", "value": 89, "unit": "%"}, {"measurement": "Inhibition Rate of Mycelial Growth against Pythium graminicola (%)", "setting": "Pythium graminicola; 100 ppm", "value": 100, "unit": "%"}, {"measurement": "Inhibition Rate of Mycelial Growth against Rhizoctonia solani (%)", "setting": "Rhizoctonia solani; 0.1 ppm", "value": 4, "unit": "%"}, {"measurement": "Inhibition Rate of Mycelial Growth against Rhizoctonia solani (%)", "setting": "Rhizoctonia solani; 1 ppm", "value": 27, "unit": "%"}, {"measurement": "Inhibition Rate of Mycelial Growth against Rhizoctonia solani (%)", "setting": "Rhizoctonia solani; 10 ppm", "value": 41, "unit": "%"}, {"measurement": "Inhibition Rate of Mycelial Growth against Botrytis cinerea (%)", "setting": "Botrytis cinerea; 3.13 ppm", "value": 0, "unit": "%"}, {"measurement": "Inhibition Rate of Mycelial Growth against Botrytis cinerea (%)", "setting": "Botrytis cinerea; 6.25 ppm", "value": 0, "unit": "%"}, {"measurement": "Inhibition Rate of Mycelial Growth against Botrytis cinerea (%)", "setting": "Botrytis cinerea; 12.5 ppm", "value": 1, "unit": "%"}]}
{"smiles": "CNC(=O)/C(=N/OC)c1ccccc1COc1cc(C)ccc1C", "note": "[dimoxystrobin]", "values": [{"measurement": "Inhibition Rate of Mycelial Growth against Botrytis cinerea (%)", "setting": "Botrytis cinerea; 0.78 ppm", "value": 0, "unit": "%"}, {"measurement": "Inhibition Rate of Mycelial Growth against Botrytis cinerea (%)", "setting": "Botrytis cinerea; 1.56 ppm", "value": 0, "unit": "%"}, {"measurement": "Inhibition Rate of Mycelial Growth against Botrytis cinerea (%)", "setting": "Botrytis cinerea; 3.13 ppm", "value": 0, "unit": "%"}]}
{"smiles": "O=[N+]([O-])c1cc(C(F)(F)F)c(Cl)c([N+](=O)[O-])c1Nc1ncc(C(F)(F)F)cc1Cl", "note": "[fluazinam, 3-chloro-N-(3-chloro-5-trifluoromethyl-2-pyridyl)-α,α,α-trifluoro-2,6-dinitro-p-toluidine]", "values": [{"measurement": "inhibition at 0.1 ppm", "setting": "Pythium graminicola; Pythium graminicola, 72 h, 0.1 ppm, read-out: Inhibition Rate of Mycelial Growth against Pythium graminicola (%)", "value": 32, "unit": "%"}, {"measurement": "inhibition at 1 ppm", "setting": "Pythium graminicola; [1]", "value": 48, "unit": "%"}, {"measurement": "inhibition at 10 ppm", "setting": "Pythium graminicola; [2]", "value": 60, "unit": "%"}, {"measurement": "inhibition at 100 ppm", "setting": "Pythium graminicola; [3]", "value": 66, "unit": "%"}, {"measurement": "inhibition at 0.1 ppm", "setting": "Rhizoctonia solani; [4]", "value": 70, "unit": "%"}, {"measurement": "inhibition at 1 ppm", "setting": "Rhizoctonia solani; [5]", "value": 77, "unit": "%"}, {"measurement": "inhibition at 10 ppm", "setting": "Rhizoctonia solani; [6]", "value": 85, "unit": "%"}, {"measurement": "inhibition at 100 ppm", "setting": "Rhizoctonia solani; Rhizoctonia solani, 96 h, 100 ppm, read-out: Inhibition Rate of Mycelial Growth against Rhizoctonia solani (%)", "value": 87, "unit": "%"}, {"measurement": "inhibition at 0.04 ppm", "setting": "Botrytis cinerea; Botrytis cinerea, 72 h, 0.04 ppm, read-out: Inhibition Rate of Mycelial Growth against Botrytis cinerea (%)", "value": 0, "unit": "%"}, {"measurement": "inhibition at 0.08 ppm", "setting": "Botrytis cinerea; Botrytis cinerea, 72 h, 0.08 ppm, read-out: Inhibition Rate of Mycelial Growth against Botrytis cinerea (%)", "value": 0, "unit": "%"}, {"measurement": "inhibition at 0.16 ppm", "setting": "Botrytis cinerea; Botrytis cinerea, 72 h, 0.16 ppm, read-out: Inhibition Rate of Mycelial Growth against Botrytis cinerea (%)", "value": 80, "unit": "%"}]}
{"smiles": "CO/N=C(/C(=O)OC)c1ccccc1COc1ccccc1C", "note": "[kresoxim-methyl]", "values": [{"measurement": "inhibition at 1 ppm", "setting": "Pythium graminicola; [1]", "value": 56, "unit": "%"}, {"measurement": "inhibition at 10 ppm", "setting": "Pythium graminicola; [2]", "value": 73, "unit": "%"}, {"measurement": "inhibition at 100 ppm", "setting": "Pythium graminicola; [3]", "value": 62, "unit": "%"}, {"measurement": "inhibition at 0.1 ppm", "setting": "Rhizoctonia solani; [4]", "value": 30, "unit": "%"}, {"measurement": "inhibition at 1 ppm", "setting": "Rhizoctonia solani; [5]", "value": 39, "unit": "%"}, {"measurement": "inhibition at 10 ppm", "setting": "Rhizoctonia solani; [6]", "value": 42, "unit": "%"}, {"measurement": "inhibition at 3.13 ppm", "setting": "Botrytis cinerea; Botrytis cinerea, 72 h, 3.13 ppm, read-out: Inhibition Rate of Mycelial Growth against Botrytis cinerea (%)", "value": 0, "unit": "%"}, {"measurement": "inhibition at 6.25 ppm", "setting": "Botrytis cinerea; Botrytis cinerea, 72 h, 6.25 ppm, read-out: Inhibition Rate of Mycelial Growth against Botrytis cinerea (%)", "value": 1, "unit": "%"}, {"measurement": "inhibition at 12.5 ppm", "setting": "Botrytis cinerea; Botrytis cinerea, 72 h, 12.5 ppm, read-out: Inhibition Rate of Mycelial Growth against Botrytis cinerea (%)", "value": 1, "unit": "%"}]}
{"smiles": "CNC(=O)/C(=N/OC)c1ccccc1Oc1ccccc1", "note": "[metominostrobin]", "values": [{"measurement": "inhibition at 25 ppm", "setting": "Botrytis cinerea; Botrytis cinerea, 72 h, 25 ppm, read-out: Inhibition Rate of Mycelial Growth against Botrytis cinerea (%)", "value": 0, "unit": "%"}, {"measurement": "inhibition at 50 ppm", "setting": "Botrytis cinerea; Botrytis cinerea, 72 h, 50 ppm, read-out: Inhibition Rate of Mycelial Growth against Botrytis cinerea (%)", "value": 1, "unit": "%"}, {"measurement": "inhibition at 100 ppm", "setting": "Botrytis cinerea; Botrytis cinerea, 72 h, 100 ppm, read-out: Inhibition Rate of Mycelial Growth against Botrytis cinerea (%)", "value": 3, "unit": "%"}]}
{"smiles": "CO/C=C(/C(=O)OC)c1ccccc1COc1cccc(C(F)(F)F)n1", "note": "[picoxystrobin]", "values": [{"measurement": "Inhibition Rate of Mycelial Growth against Botrytis cinerea (%)", "setting": "Botrytis cinerea; 6.25 ppm", "value": 1, "unit": "%"}, {"measurement": "Inhibition Rate of Mycelial Growth against Botrytis cinerea (%)", "setting": "Botrytis cinerea; 12.5 ppm", "value": 2, "unit": "%"}, {"measurement": "Inhibition Rate of Mycelial Growth against Botrytis cinerea (%)", "setting": "Botrytis cinerea; 25 ppm", "value": 3, "unit": "%"}]}
{"smiles": "COC(=O)N(OC)c1ccccc1COc1ccn(-c2ccc(Cl)cc2)n1", "note": "[pyraclostrobin]", "values": [{"measurement": "inhibition at 1 ppm", "setting": "Pythium graminicola; [1]", "value": 83, "unit": "%"}, {"measurement": "inhibition at 10 ppm", "setting": "Pythium graminicola; [2]", "value": 100, "unit": "%"}, {"measurement": "inhibition at 100 ppm", "setting": "Pythium graminicola; [3]", "value": 100, "unit": "%"}, {"measurement": "inhibition at 0.1 ppm", "setting": "Rhizoctonia solani; [4]", "value": 26, "unit": "%"}, {"measurement": "inhibition at 1 ppm", "setting": "Rhizoctonia solani; [5]", "value": 55, "unit": "%"}, {"measurement": "inhibition at 10 ppm", "setting": "Rhizoctonia solani; [6]", "value": 67, "unit": "%"}, {"measurement": "inhibition at 0.39 ppm", "setting": "Botrytis cinerea; [7]", "value": 0, "unit": "%"}, {"measurement": "inhibition at 0.78 ppm", "setting": "Botrytis cinerea; [8]", "value": 1, "unit": "%"}, {"measurement": "inhibition at 1.56 ppm", "setting": "Botrytis cinerea; [9]", "value": 5, "unit": "%"}]}
{"smiles": "CON=C(C(=O)OC)c1ccccc1CON=C(C)c1cccc(C(F)(F)F)c1", "note": "[trifloxystrobin]", "values": [{"measurement": "inhibition at 0.39 ppm", "setting": "Botrytis cinerea; [7]", "value": 0, "unit": "%"}, {"measurement": "inhibition at 0.78 ppm", "setting": "Botrytis cinerea; [8]", "value": 0, "unit": "%"}, {"measurement": "inhibition at 1.56 ppm", "setting": "Botrytis cinerea; [9]", "value": 0, "unit": "%"}]}
